In patent US7183260B2, “C-terminal modified oxamyl dipeptides as inhibitors of the ICE/ced-3 family of cysteine proteases” (Idun Pharmaceuticals, Inc., priority 1998, dated 2007):
Where two headings read alike, the source gives them in different places. Where a SMILES comes first, the peptide text is derived from it. The star is where a group is joined. Cbz = O=C(OCc1ccccc1)*; CH2F = FC*

Legend:
Assay type in all cases: biochemical
MCH-5 = MCH-5 (Homo sapiens, UniProt Q14790); assay: Dissociation constant Ki and irreversible rate constant k3 for irreversible inhibitors (Mch5)
MCH-5, sequence (Q14790 217-374 limits assumed, species assumed): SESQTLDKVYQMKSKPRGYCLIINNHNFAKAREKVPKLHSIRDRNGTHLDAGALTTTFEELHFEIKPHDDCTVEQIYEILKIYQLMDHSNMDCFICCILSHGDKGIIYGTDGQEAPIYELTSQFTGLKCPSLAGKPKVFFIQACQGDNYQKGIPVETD
MCH-5, sequence (Q14790 385-479 limits assumed, species assumed): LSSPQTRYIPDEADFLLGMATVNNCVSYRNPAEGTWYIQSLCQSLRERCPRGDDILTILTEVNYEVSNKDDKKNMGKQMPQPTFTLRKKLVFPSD

mICE = biological target: T1, mICE (Mus musculus, UniProt P29452); assay: Dissociation constant Ki and irreversible rate constant k3 for irreversible inhibitors (ICE)
T1 sequence (P29452 123-296 limits assumed): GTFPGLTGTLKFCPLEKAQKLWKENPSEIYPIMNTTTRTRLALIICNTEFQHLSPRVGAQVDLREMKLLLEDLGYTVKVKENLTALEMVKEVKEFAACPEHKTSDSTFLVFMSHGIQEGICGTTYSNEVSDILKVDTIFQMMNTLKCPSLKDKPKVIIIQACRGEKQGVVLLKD
T1 sequence (P29452 315-402 limits assumed): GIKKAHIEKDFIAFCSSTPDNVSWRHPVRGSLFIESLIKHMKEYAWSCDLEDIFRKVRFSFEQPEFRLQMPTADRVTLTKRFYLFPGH

MCH-2 = biological target: T2, MCH-2 (Homo sapiens, UniProt P55212); assay: Dissociation constant Ki and irreversible rate constant k3 for irreversible inhibitors (Mch2)
T2 sequence (P55212 24-179 limits assumed): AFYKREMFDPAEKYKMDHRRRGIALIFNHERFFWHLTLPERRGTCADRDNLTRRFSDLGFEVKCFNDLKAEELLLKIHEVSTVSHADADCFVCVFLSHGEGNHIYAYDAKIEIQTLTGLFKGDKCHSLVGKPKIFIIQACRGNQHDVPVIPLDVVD
T2 sequence (P55212 194-293 limits assumed): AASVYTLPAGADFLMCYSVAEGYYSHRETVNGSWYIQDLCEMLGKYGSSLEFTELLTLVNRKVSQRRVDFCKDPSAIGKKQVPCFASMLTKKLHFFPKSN

CPP32 = biological target: T3, CPP32 (Homo sapiens, UniProt P42574); assay: Dissociation constant Ki and irreversible rate constant k3 for irreversible inhibitors (CPP32)
T3 sequence (P42574 29-175 limits assumed): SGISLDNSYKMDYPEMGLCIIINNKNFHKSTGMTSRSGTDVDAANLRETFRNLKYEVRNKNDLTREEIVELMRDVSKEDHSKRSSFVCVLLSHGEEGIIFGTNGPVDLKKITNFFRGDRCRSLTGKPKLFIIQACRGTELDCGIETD
T3 sequence (P42574 176-277 limits assumed): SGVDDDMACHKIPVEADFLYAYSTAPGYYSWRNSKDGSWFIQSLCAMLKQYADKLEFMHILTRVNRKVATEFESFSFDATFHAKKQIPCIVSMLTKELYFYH

[1] = continuous assay 60 min, reaction initiated by adding enzyme to substrate-inhibitor mixture

SMILES | Ki (MCH-5; [1]) [nM] | MCH-5 k3/Ki (MCH-5; [1]) | Ki (mICE; [1]) [nM] | mICE k3/Ki (mICE; [1]) | Ki (MCH-2; [1]) [nM] | MCH-2 k3/Ki (MCH-2; [1]) | CPP32 k3/Ki (CPP32; [1]) | Ki (CPP32; [1]) [nM] | Ki (MCH-5) [nM] | MCH-5 k3/Ki (MCH-5) | Ki (mICE) [nM] | mICE k3/Ki (mICE) | Ki (MCH-2) [nM] | MCH-2 k3/Ki (MCH-2) | CPP32 k3/Ki (CPP32) | Ki (CPP32) [nM]
CC(C)[C@H](NC(=O)C(=O)Nc1cccc2ccccc12)C(=O)NC(CC(=O)O)C(=O)CF (mixture of isomers) [Example 3, (3RS)-3-[N-(N′-(1-NAPHTHYL)OXAMYL)VALINYL]AMINO-5-FLUORO-4-OXOPEINTANOIC ACID] | 1.3 | 1,160,000 moles^−1 seconds^−1 | 1.8 | 2,170,000 moles^−1 seconds^−1 | 17 | 199,000 moles^−1 seconds^−1 | 413,000 moles^−1 seconds^−1 | 32 | – | – | – | – | – | – | – | –
C[C@H](NC(=O)C(=O)NC1CCCCC1)C(=O)N[C@@H](CC(=O)O)C(=O)COC(=O)c1c(Cl)cccc1Cl [Example 55] | 2.6 | 2,140,000 moles^−1 seconds^−1 | 6.1 | 2,020,000 moles^−1 seconds^−1 | 6.3 | 655,000 moles^−1 seconds^−1 | 1,174,000 moles^−1 seconds^−1 | 13 | – | – | – | – | – | – | – | –
C[C@H](NC(=O)C(=O)NC1CCCCC1)C(=O)N[C@@H](CC(=O)O)C(=O)COP(=O)(c1ccccc1)c1ccccc1 [Example 56] | 2.5 | 1,790,000 moles^−1 seconds^−1 | 5.3 | 2,032,000 moles^−1 seconds^−1 | 25 | 97,500 moles^−1 seconds^−1 | 137,000 moles^−1 seconds^−1 | 96 | – | – | – | – | – | – | – | –
CC(C)[C@H](NC(=O)C(=O)Nc1ccncc1)C(=O)N[C@@H](CC(=O)O)C(=O)COc1c(F)c(F)cc(F)c1F [Example 101] | 1550 | 1,140 moles^−1 seconds^−1 | 22600 | 912 mol⁻¹ s⁻¹ | 641 | 5,580 moles^−1 seconds^−1 | 511 mol⁻¹ s⁻¹ | 26100 | – | – | – | – | – | – | – | –
C[C@H](NC(=O)C(=O)Nc1cc(C(F)(F)F)ccc1N1CCCC1)C(=O)N[C@@H](CC(=O)O)C(=O)COP(=O)(c1ccccc1)c1ccccc1 [Example 46] | 4.4 | 933,000 moles^−1 seconds^−1 | 5.3 | 1,503,000 moles^−1 seconds^−1 | 7.3 | 202,000 moles^−1 seconds^−1 | 78,600 moles^−1 seconds^−1 | 52 | – | – | – | – | – | – | – | –
C[C@H](NC(=O)C(=O)Nc1ccccc1C(C)(C)C)C(=O)N[C@@H](CC(=O)O)C(=O)COc1ccccc1F [Example 31] | 45 | 119,000 moles^−1 seconds^−1 | 31 | 442,000 moles^−1 seconds^−1 | 71 | 54,900 moles^−1 seconds^−1 | 67,700 moles^−1 seconds^−1 | 60 | – | – | – | – | – | – | – | –
COc1ccccc1NC(=O)C(=O)N[C@H](C(=O)N[C@@H](CC(=O)O)C(=O)COc1c(F)c(F)cc(F)c1F)C(C)C [Example 95] | 3 | 2,680,000 moles^−1 seconds^−1 | 6 | 2,068,000 moles^−1 seconds^−1 | 88 | 61,500 moles^−1 seconds^−1 | 10,800 moles^−1 seconds^−1 | 1090 | – | – | – | – | – | – | – | –
CC(C)[C@H](NC(=O)C(=O)Nc1cccc2ccccc12)C(=O)N[C@@H](CC(=O)O)C(=O)COc1c(F)c(F)cc(F)c1F [Example 7] | 3.7 | – | 5.7 | – | 16 | – | – | 46 | – | – | – | – | – | – | – | –
C[C@H](NC(=O)C(=O)Nc1ccccc1-c1ccccc1)C(=O)N[C@@H](CC(=O)O)C(=O)COc1ccccc1F [Example 28] | 5.8 | 37,800 moles^−1 seconds^−1 | 46 | 167,000 moles^−1 seconds^−1 | 42 | 35,000 moles^−1 seconds^−1 | 55,600 moles^−1 seconds^−1 | 109 | – | – | – | – | – | – | – | –
C[C@H](NC(=O)C(=O)Nc1cccc2c1CCCC2)C(=O)N[C@@H](CC(=O)O)C(=O)COc1c(F)c(F)cc(F)c1F [Example 50] | 74 | 46,200 moles^−1 seconds^−1 | 640 | 22,000 moles^−1 seconds^−1 | 72 | 64,100 moles^−1 seconds^−1 | 118,000 moles^−1 seconds^−1 | 129 | – | – | – | – | – | – | – | –
C[C@H](NC(=O)C(=O)NC12CC3CC(CC(C3)C1)C2)C(=O)N[C@@H](CC(=O)O)C(=O)COP(=O)(c1ccccc1)c1ccccc1 [Example 53] | – | – | – | – | – | – | – | – | 77 | 50,400 moles^−1 seconds^−1 | 462 | 27,600 moles^−1 seconds^−1 | 42 | 124,000 moles^−1 seconds^−1 | 149,000 moles^−1 seconds^−1 | 134
CC(NC(=O)C(NC(=O)OCc1ccccc1)C(C)C)C(=O)NC(CC(=O)O)C(=O)CF (stereo not drawn) [refer., Cbz-ValAlaAsp-CH2F, reference compound] (Cbz-Val-Ala-Asp-CH2F; configuration not given here) | 18 | 83,300 moles^−1 seconds^−1 | 15 | 214,000 moles^−1 seconds^−1 | 594 | 2,950 moles^−1 seconds^−1 | 12,200 moles^−1 seconds^−1 | 820 | – | – | – | – | – | – | – | –
CC(C)[C@H](NC(=O)C(=O)Nc1cccc2ccccc12)C(=O)N[C@@H](CC(=O)O)C(=O)COC(=O)c1c(Cl)cccc1Cl [Example 4] | 4 | – | 6.1 | – | 9 | – | – | 14 | – | – | – | – | – | – | – | –
CC(C)[C@H](NC(=O)C(=O)NCCc1ccccc1)C(=O)N[C@@H](CC(=O)O)C(=O)COc1c(F)c(F)cc(F)c1F [Example 80] | 162 | 16,600 moles^−1 seconds^−1 | 182 | 77,100 moles^−1 seconds^−1 | 175 | 12,600 moles^−1 seconds^−1 | 13,400 moles^−1 seconds^−1 | 515 | – | – | – | – | – | – | – | –
CC(C)[C@H](NC(=O)C(=O)Nc1cnccn1)C(=O)N[C@@H](CC(=O)O)C(=O)COc1c(F)c(F)cc(F)c1F [Example 103] | 4.7 | – | 5.3 | – | 17 | – | – | 60 | – | – | – | – | – | – | – | –
C[C@H](NC(=O)C(=O)Nc1ccccc1C(C)(C)C)C(=O)N[C@@H](CC(=O)O)C(=O)COC(=O)c1c(Cl)cccc1Cl [Example 76] | 22 | 30,200 moles^−1 seconds^−1 | 19 | 537,000 moles^−1 seconds^−1 | 235 | 6,960 moles^−1 seconds^−1 | 62,900 moles^−1 seconds^−1 | 85 | – | – | – | – | – | – | – | –
CC(C)[C@H](NC(=O)C(=O)Nc1ccccc1Cl)C(=O)N[C@@H](CC(=O)O)C(=O)COc1c(F)c(F)cc(F)c1F [Example 105] | 52 | 234,000 moles^−1 seconds^−1 | 8.4 | 1,540,000 moles^−1 seconds^−1 | 26 | 161,000 moles^−1 seconds^−1 | 96,300 moles^−1 seconds^−1 | 122 | – | – | – | – | – | – | – | –
C[C@H](NC(=O)C(=O)Nc1ccccc1F)C(=O)N[C@@H](CC(=O)O)C(=O)COc1c(F)c(F)cc(F)c1F [Example 66] | 13 | 170,000 moles^−1 seconds^−1 | 25 | 339,000 moles^−1 seconds^−1 | 19 | 212,000 moles^−1 seconds^−1 | 478,000 moles^−1 seconds^−1 | 28 | – | – | – | – | – | – | – | –
C[C@H](NC(=O)C(=O)Nc1cccc2c1CCCC2)C(=O)N[C@@H](CC(=O)O)C(=O)COC(=O)c1c(Cl)cccc1Cl [Example 62] | 90 | 21,200 moles^−1 seconds^−1 | 1020 | 16,900 moles^−1 seconds^−1 | 23 | 126,000 moles^−1 seconds^−1 | 149,000 moles^−1 seconds^−1 | 101 | – | – | – | – | – | – | – | –
CCCCCCCc1ccc(NC(=O)C(=O)N[C@H](C(=O)N[C@@H](CC(=O)O)C(=O)COc2c(F)c(F)cc(F)c2F)C(C)C)cc1 [Example 94] | 12 | 155,000 moles^−1 seconds^−1 | 24 | 657,000 moles^−1 seconds^−1 | 59 | 50,000 moles^−1 seconds^−1 | 11,200 moles^−1 seconds^−1 | 1110 | – | – | – | – | – | – | – | –
CC(C)[C@H](NC(=O)C(=O)Nc1cccc2ccccc12)C(=O)N[C@@H](CC(=O)O)C(=O)COc1c(F)cc(F)cc1F [Example 6] | 5.3 | – | 8.8 | – | 42 | – | – | 39 | – | – | – | – | – | – | – | –
